Test results from patent US6156700A, “3-(1,2-Benzisothiazol- and isoxazol-5-yl)-2,4(1H,3H)-pyrimidinedione or thione and 3-(1,2-benzisothiazol- and isoxazol-5-yl)-4(3H)-pyrimidinone or thione herbicidal agents” (American Cyanmid Company, priority 1998, dated 2000).

Key:
MOOVA Monochoria = assay: Preemergence weed control, flooded paddy (Table III); format: in vivo, Monochoria vaginalis; design: scale not given here
Procedure: (§1) Preemergence herbicidal activity under flooded paddy conditions is determined as follows: plant seeds or propagating organs are planted in the top 0.5 cm of silt loam soil in 32 oz. plastic containers with a diameter of 10.5 cm and no drainage holes. Water is added to these containers and maintained at 1.5 to 3 cm above the soil surface for the duration of the experiment. The test compounds are applied as aqueous/acetone mixtures 50/50 v/v pipetted directly into the flood water to give the equivalent of about 0.0313 to 0.500 kg/ha of active ingredient. The treated containers are placed on greenhouse benches and cared for in accordance with conventional greenhouse procedures. Three to four weeks after treatment, the test is terminated and each container is examined and herbicidal effect rated according to the rating system provided in Example 185. The compounds evaluated are reported by compound number given in Example 185.

[1] = tested on: Rice, Tebonnet, Oryza sativa; assay: Postemergence herbicidal evaluation, ORYSAT; format: in vivo, (L.) Tebonnet; conditions: 0.2500 kg/ha
How it was run: (§2)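 Approximately two-week-old seedlings received a spray of active compound equivalent to about 0.0157–0.500 kg/ha. The carrier was acetone/water (50/50) with 0.5% TWEEN 20. Plants were kept on greenhouse benches and assessed 0–9 versus control after four to five weeks.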

[2] = tested on: Sicklepod, Cassia obtusifolia; assay: Postemergence herbicidal evaluation, CASOB; format: in vivo, L.; conditions: 0.2500 kg/ha
How it was run: as §2

ORYSAT Rice, Tebonnet = assay: Rice tolerance, flooded paddy (Table IV); format: in vivo, Oryza sativa; design: scale not given here; conditions: crop tolerance
How it was run: (§3)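 Herbicidal effect is scored visually on a rating scale three to four weeks after compounds, in aqueous/acetone 50/50 v/v, are added to flood water at roughly 0.0313 to 0.500 kg/ha. Plants: weeds 3 to 5 cm tall, rice at 1.5 to 2.5 leaves.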

Corn, Field, Zea mays [3] = assay: Preemergence herbicidal evaluation, ZEAMX; format: in vivo, L.; conditions: 0.2500 kg/ha
How it was run: (§4)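 Sow seeds in soil-filled cups; spray aqueous acetone compound solution at about 0.0156–0.500 kg/ha; keep on greenhouse benches with routine watering; after four to five weeks, rate visual injury 0–9 compared with control plants.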

Galium, Galium aparine = assay: Postemergence herbicidal evaluation, GALAP; format: in vivo; conditions: 0.2500 kg/ha
How it was run: as §2

[4] = tested on: Wheat, Winter, cv Riband, Triticum aestivum; assay: Preemergence herbicidal evaluation, TRZAWR; format: in vivo; conditions: 0.2500 kg/ha
How it was run: as §4

[5] = tested on: Foxtail, Green, Setaria viridis; assay: Preemergence herbicidal evaluation, SETVI; format: in vivo, (L.) Beau; conditions: 0.2500 kg/ha
How it was run: as §4

[6] = tested on: Foxtail, Green, Setaria viridis; assay: Postemergence herbicidal evaluation, SETVI; format: in vivo, (L.) Beau; conditions: 0.2500 kg/ha
How it was run: as §2

[7] = tested on: ECHORC Watergrass (Calif.); assay: Preemergence weed control, flooded paddy (Table III); format: in vivo, Echinochloa oryzoides; design: scale not given here
Procedure: as §1

[8] = tested on: Wheat, Winter, cv Riband, Triticum aestivum; assay: Postemergence herbicidal evaluation, TRZAWR; format: in vivo; conditions: 0.2500 kg/ha
How it was run: as §2

[9] = tested on: Velvetleaf, Abutilon theophrasti; assay: Preemergence herbicidal evaluation, ABUTH; format: in vivo, Medic.; conditions: 0.2500 kg/ha
How it was run: as §4

[10] = tested on: Barnyardgrass, Echinochloa crus-galli; assay: Preemergence herbicidal evaluation, ECHCG; format: in vivo, (L.) Beau; conditions: 0.2500 kg/ha
How it was run: as §4

[11] = tested on: Barnyardgrass, Echinochloa crus-galli; assay: Postemergence herbicidal evaluation, ECHCG; format: in vivo, (L.) Beau; conditions: 0.2500 kg/ha
How it was run: as §2

CYPIR Rice Flatsedge [12] = assay: Preemergence weed control, flooded paddy (Table III); format: in vivo, Cyperus iria; design: scale not given here
Procedure: as §1

Corn, Field, Zea mays [13] = assay: Postemergence herbicidal evaluation, ZEAMX; format: in vivo, L.; conditions: 0.2500 kg/ha
How it was run: as §2

CYPIR Rice Flatsedge [14] = assay: Postemergence weed control, flooded paddy (Table IV); format: in vivo, Cyperus iria; design: scale not given here
How it was run: as §3

[15] = tested on: Ragweed, Common, Ambrosia artemisifolia; assay: Preemergence herbicidal evaluation, AMBEL; format: in vivo, L.; conditions: 0.2500 kg/ha
How it was run: as §4

[16] = tested on: Rice, Tebonnet, Oryza sativa; assay: Preemergence herbicidal evaluation, ORYSAT; format: in vivo, (L.) Tebonnet; conditions: 0.2500 kg/ha
How it was run: as §4

[17] = tested on: ECHORC Watergrass (Calif.); assay: Postemergence weed control, flooded paddy (Table IV); format: in vivo, Echinochloa oryzoides; design: scale not given here
How it was run: as §3

[18] = tested on: Ragweed, Common, Ambrosia artemisifolia; assay: Postemergence herbicidal evaluation, AMBEL; format: in vivo, L.; conditions: 0.2500 kg/ha
How it was run: as §2

`Cn1c(C(F)(F)F)cc(=O)n(-c2ccc3snc(-c4ccccc4)c3c2)c1=O` [Compound 4, 1-Methyl-3-(3-phenyl-1,2-benzisothiazol-5-yl)-6-(trifluoromethyl)-2,4(1H,3H)-pyrimidinedione] showed a herbicidal effect rating (MOOVA Monochoria; 0.0313 kg/ha) of 9.0, a herbicidal effect rating (MOOVA Monochoria; 0.0625 kg/ha) of 9.0 and a herbicidal effect rating (MOOVA Monochoria; 0.1250 kg/ha) of 9.0. The herbicidal effect rating (MOOVA Monochoria; 0.2500 kg/ha) was 9.0, the herbicidal effect rating (MOOVA Monochoria; 0.5000 kg/ha) was 9.0 and the “herbicide rating (0-9)” value [1] was 3.0. The “herbicide rating (0-9)” value [2] was 9.0, the herbicidal effect rating (ORYSAT Rice, Tebonnet; 0.1250 kg/ha) was 7.0 and the herbicidal effect rating (ORYSAT Rice, Tebonnet; 0.2500 kg/ha) was 8.0. The herbicidal effect rating (ORYSAT Rice, Tebonnet; 0.5000 kg/ha) was 8.0, the “herbicide rating (0-9)” value (Corn, Field, Zea mays [3]) was 7.0 and the “herbicide rating (0-9)” value (Galium, Galium aparine) was 9.0. The “herbicide rating (0-9)” value [4] was 7.0, the “herbicide rating (0-9)” value [5] was 9.0 and the “herbicide rating (0-9)” value [6] was 9.0. The herbicidal effect rating ([7]; 0.0313 kg/ha) was 9.0, the herbicidal effect rating ([7]; 0.0625 kg/ha) was 9.0 and the herbicidal effect rating ([7]; 0.1250 kg/ha) was 9.0. The herbicidal effect rating ([7]; 0.2500 kg/ha) was 9.0, the herbicidal effect rating ([7]; 0.5000 kg/ha) was 9.0 and the “herbicide rating (0-9)” value [8] was 3.0. The “herbicide rating (0-9)” value [9] was 9.0, the “herbicide rating (0-9)” value [10] was 9.0 and the “herbicide rating (0-9)” value [11] was 8.0. For the same molecule, the herbicidal effect rating (CYPIR Rice Flatsedge [12]; 0.0313 kg/ha) was 9.0, the herbicidal effect rating (CYPIR Rice Flatsedge [12]; 0.0625 kg/ha) was 9.0 and the herbicidal effect rating (CYPIR Rice Flatsedge [12]; 0.1250 kg/ha) was 9.0. For the same molecule, the herbicidal effect rating (CYPIR Rice Flatsedge [12]; 0.2500 kg/ha) was 9.0, the herbicidal effect rating (CYPIR Rice Flatsedge [12]; 0.5000 kg/ha) was 9.0 and the “herbicide rating (0-9)” value (Corn, Field, Zea mays [13]) was 3.0. The herbicidal effect rating (CYPIR Rice Flatsedge [14]; 0.1250 kg/ha) was 9.0, the herbicidal effect rating (CYPIR Rice Flatsedge [14]; 0.2500 kg/ha) was 9.0 and the herbicidal effect rating (CYPIR Rice Flatsedge [14]; 0.5000 kg/ha) was 9.0. For the same molecule, the “herbicide rating (0-9)” value [15] was 9.0, the “herbicide rating (0-9)” value [16] was 7.0 and the herbicidal effect rating ([17]; 0.1250 kg/ha) was 9.0. For the same molecule, the herbicidal effect rating ([17]; 0.2500 kg/ha) was 9.0, the herbicidal effect rating ([17]; 0.5000 kg/ha) was 9.0 and the “herbicide rating (0-9)” value [18] was 9.0.
`CCc1ccc(-c2nsc3ccc(-n4c(=O)cc(C(F)(F)F)n(C)c4=O)cc23)cc1` [Compound 5, 3-[3-(p-Ethylphenyl)-1,2-benzisothiazol-5-yl]-1-methyl-6-(trifluoromethyl)-2,4 (1H,3H)-pyrimidinedione] gave a herbicidal effect rating (MOOVA Monochoria; 0.0313 kg/ha) of 9.0, a herbicidal effect rating (MOOVA Monochoria; 0.0625 kg/ha) of 9.0 and a herbicidal effect rating (MOOVA Monochoria; 0.1250 kg/ha) of 9.0. For the same molecule, the herbicidal effect rating (MOOVA Monochoria; 0.2500 kg/ha) was 9.0, the herbicidal effect rating (MOOVA Monochoria; 0.5000 kg/ha) was 9.0 and the “herbicide rating (0-9)” value [1] was 3.0. The “herbicide rating (0-9)” value [2] was 9.0, the herbicidal effect rating (ORYSAT Rice, Tebonnet; 0.1250 kg/ha) was 4.0 and the herbicidal effect rating (ORYSAT Rice, Tebonnet; 0.2500 kg/ha) was 6.0. For the same molecule, the herbicidal effect rating (ORYSAT Rice, Tebonnet; 0.5000 kg/ha) was 8.0, the “herbicide rating (0-9)” value (Corn, Field, Zea mays [3]) was 3.0 and the “herbicide rating (0-9)” value (Galium, Galium aparine) was 9.0. The “herbicide rating (0-9)” value [4] was 4.0, the “herbicide rating (0-9)” value [5] was 9.0 and the “herbicide rating (0-9)” value [6] was 9.0. It also gave a herbicidal effect rating ([7]; 0.0313 kg/ha) of 9.0, a herbicidal effect rating ([7]; 0.0625 kg/ha) of 9.0 and a herbicidal effect rating ([7]; 0.1250 kg/ha) of 9.0. The herbicidal effect rating ([7]; 0.2500 kg/ha) was 9.0, the herbicidal effect rating ([7]; 0.5000 kg/ha) was 9.0 and the “herbicide rating (0-9)” value [8] was 2.0. The “herbicide rating (0-9)” value [9] was 9.0, the “herbicide rating (0-9)” value [10] was 9.0 and the “herbicide rating (0-9)” value [11] was 7.0. For the same molecule, the herbicidal effect rating (CYPIR Rice Flatsedge [12]; 0.0313 kg/ha) was 9.0, the herbicidal effect rating (CYPIR Rice Flatsedge [12]; 0.0625 kg/ha) was 9.0 and the herbicidal effect rating (CYPIR Rice Flatsedge [12]; 0.1250 kg/ha) was 9.0. For the same molecule, the herbicidal effect rating (CYPIR Rice Flatsedge [12]; 0.2500 kg/ha) was 9.0, the herbicidal effect rating (CYPIR Rice Flatsedge [12]; 0.5000 kg/ha) was 9.0 and the “herbicide rating (0-9)” value (Corn, Field, Zea mays [13]) was 3.0. For the same molecule, the herbicidal effect rating (CYPIR Rice Flatsedge [14]; 0.1250 kg/ha) was 9.0, the herbicidal effect rating (CYPIR Rice Flatsedge [14]; 0.2500 kg/ha) was 9.0 and the herbicidal effect rating (CYPIR Rice Flatsedge [14]; 0.5000 kg/ha) was 9.0. For the same molecule, the “herbicide rating (0-9)” value [15] was 9.0, the “herbicide rating (0-9)” value [16] was 7.0 and the herbicidal effect rating ([17]; 0.1250 kg/ha) was 6.0. The herbicidal effect rating ([17]; 0.2500 kg/ha) was 9.0, the herbicidal effect rating ([17]; 0.5000 kg/ha) was 9.0 and the “herbicide rating (0-9)” value [18] was 9.0.
